Source: patent publication US8147838B2, “Peptide” (priority 2005, dated 2012)
Values belong to the compound of their own block, whether it stands above or below them. Residues, ends and D or L forms follow the SMILES beside them. No end group written: not given here.

Tests used:
[1] = molecular target: MHC class I allele B*0702 (B7) (Homo sapiens, UniProt P01889); assay: iScore multi-parametric analysis, B*0702; settings: level of binding: >0.5, 0.25-0.5, <0.25
Procedure: (§1) Finally, multiparametric analysis is performed on the results from these assays and an iScore is generated. The iScore represents a measure of the overall quality of peptide-MHC binding, enabling candidate peptides to be ranked in order of binding quality and allowing rational prioritisation of peptides for functional cellular follow-up studies.
As part of the validation of the iTopia system, a panel of overlapping peptides derived from the CMV pp 65 protein were used and their binding properties for the A*0201 allele analysed. A number of T cell epitopes restricted by HLA A*0201 had already been identified (by more conventional methodologies) by other researchers for this protein. In the iTopia study, it was reported that an iScore of: >0.5 represented “good quality binding”; between 0.25 and 0.5 represented “medium quality binding”; and <0.25 represented “poor quality binding”.
(§2) Multi-parametric analysis permits the integration of half-life and ED50 parameters in an integrated iScore. This reflects the capability of a peptide to reconstitute with MHC molecules in a stable complex, defining its overall level of binding i.e. the iScore value represents the overall quality of peptide-MHC binding and is used to rank candidate peptides as an indicator of functional relevance. The lead candidate epitopes for each allele are selected for cellular functional analysis to confirm their biological relevance.

[2] = molecular target: MHC class I allele A*0201 (A2) (Homo sapiens, UniProt P04439, D140Y/D185E/D98H/E176V/E277Q/G131W/G231S/I119V/I121R/I166T/I218V/L300P/L318F/N151K/N90K/P208A/P217A/Q86G/Q94H/R138H/R169H/T345S); assay: iScore multi-parametric analysis, A*0201; format: binding; settings: level of binding: >0.5, 0.25-0.5, <0.25
Procedure: as §1
(§3) As part of the validation of the iTopia system, a panel of overlapping peptides derived from the CMV pp 65 protein were used and their binding properties for the A*0201 allele analysed. A number of T cell epitopes restricted by HLA A*0201 had already been identified (by more conventional methodologies) by other researchers for this protein. In the iTopia study, it was reported that an iScore of: >0.5 represented “good quality binding”; between 0.25 and 0.5 represented “medium quality binding”; and <0.25 represented “poor quality binding”. Six of the 20 peptides which gave a “good” iScore (>0.5) for A*0201, represented previously characterised CMV pp 65 A*0201 epitopes.
(§4) Each MHC class I allele has different binding properties and affinities for peptides which they bind. Therefore, information obtained with HLA A*0201 in which peptides are ranked as good, medium or poor binders using >0.5, 0.25-0.5 and <0.25 as thresholds is not necessarily transferable between alleles. Also, different proteins are likely to have distinct immunogenic profiles and the affinities between peptides and MHC class I molecules will be different between proteins. This may be particularly relevant in the case of self-antigens where immunogenicity is likely to be lower than in foreign proteins.
as §2
(§5) The changes in gradient of the graphs in FIGS. 7 to 10 are indicated by a line which delineates the populations of iScores forming the basis of discrimination for further functional studies.

[3] = molecular target: MHC class I allele A*0301 (A3) (Homo sapiens, UniProt P04439); assay: iScore multi-parametric analysis, A*0301; format: binding; settings: level of binding: >0.5, 0.25-0.5, <0.25
Procedure: as §1, §3, §4, §2, §5

[4] = molecular target: MHC class I allele A*0101 (A1) (Homo sapiens, UniProt P04439, A114D/A174V/A182V/D101N/D185E/E176A/E190D/L180R/Q94H/R68K/S129P/T187R/V100A/V91M/W191G); assay: iScore multi-parametric analysis, A*0101; format: binding; settings: for iScore, MHC Class I Molecule A*0101: level of binding: >0.5, 0.25-0.5, <0.25
Procedure: as §1, §3, §4, §2, §5

Compound: RSFEGMVVA [Peptide 97]
iScore, MHC Class I Molecule B*0702 [1]: 0 | iScore, MHC Class I Molecule A*0201 [2]: 0.189 | iScore, MHC Class I Molecule A*0301 [3]: 0 | iScore, MHC Class I Molecule A*0101 [4]: 0

Compound: RNLTHLESL [Peptide 128]
iScore, MHC Class I Molecule B*0702 [1]: 0 | iScore, MHC Class I Molecule A*0201 [2]: 0.072 | iScore, MHC Class I Molecule A*0301 [3]: 0 | iScore, MHC Class I Molecule A*0101 [4]: 0

Compound: AYVRNLFLT [Peptide 46]
iScore, MHC Class I Molecule B*0702 [1]: 0 | iScore, MHC Class I Molecule A*0201 [2]: 0.18 | iScore, MHC Class I Molecule A*0301 [3]: 0 | iScore, MHC Class I Molecule A*0101 [4]: 0

Compound: APSPLVELI [Peptide 86]
iScore, MHC Class I Molecule B*0702 [1]: 0.101 | iScore, MHC Class I Molecule A*0201 [2]: 0 | iScore, MHC Class I Molecule A*0301 [3]: 0 | iScore, MHC Class I Molecule A*0101 [4]: 0

Compound: SSAPFLASA [Peptide 22]
iScore, MHC Class I Molecule B*0702 [1]: 0 | iScore, MHC Class I Molecule A*0201 [2]: 0.389 | iScore, MHC Class I Molecule A*0301 [3]: 0 | iScore, MHC Class I Molecule A*0101 [4]: 0

Compound: SPTSSASSF [Peptide 17]
iScore, MHC Class I Molecule B*0702 [1]: 0.335 | iScore, MHC Class I Molecule A*0201 [2]: 0 | iScore, MHC Class I Molecule A*0301 [3]: 0 | iScore, MHC Class I Molecule A*0101 [4]: 0

Compound: TSSASSFSS [Peptide 18]
iScore, MHC Class I Molecule B*0702 [1]: 0 | iScore, MHC Class I Molecule A*0201 [2]: 0.037 | iScore, MHC Class I Molecule A*0301 [3]: 0 | iScore, MHC Class I Molecule A*0101 [4]: 0

Compound: ELILNHIVP [Peptide 89]
iScore, MHC Class I Molecule B*0702 [1]: 0 | iScore, MHC Class I Molecule A*0201 [2]: 0.067 | iScore, MHC Class I Molecule A*0301 [3]: 0 | iScore, MHC Class I Molecule A*0101 [4]: 0

Compound: GMVVAALLA [Peptide 99]
iScore, MHC Class I Molecule B*0702 [1]: 0 | iScore, MHC Class I Molecule A*0201 [2]: 0.384 | iScore, MHC Class I Molecule A*0301 [3]: 0 | iScore, MHC Class I Molecule A*0101 [4]: 0

Compound: EHLPSLRQL [Peptide 70]
iScore, MHC Class I Molecule B*0702 [1]: 0 | iScore, MHC Class I Molecule A*0201 [2]: 0.046 | iScore, MHC Class I Molecule A*0301 [3]: 0 | iScore, MHC Class I Molecule A*0101 [4]: 0

Compound: GWVSSSSPT [Peptide 14]
iScore, MHC Class I Molecule B*0702 [1]: 0 | iScore, MHC Class I Molecule A*0201 [2]: 0.044 | iScore, MHC Class I Molecule A*0301 [3]: 0 | iScore, MHC Class I Molecule A*0101 [4]: 0

Compound: SASSFSSSA [Peptide 19]
iScore, MHC Class I Molecule B*0702 [1]: 0 | iScore, MHC Class I Molecule A*0201 [2]: 0.045 | iScore, MHC Class I Molecule A*0301 [3]: 0 | iScore, MHC Class I Molecule A*0101 [4]: 0

Compound: LTHLESLHL [Peptide 129]
iScore, MHC Class I Molecule B*0702 [1]: 0 | iScore, MHC Class I Molecule A*0201 [2]: 0.143 | iScore, MHC Class I Molecule A*0301 [3]: 0 | iScore, MHC Class I Molecule A*0101 [4]: 0

Compound: ELAALNLSG [Peptide 60]
iScore, MHC Class I Molecule B*0702 [1]: 0 | iScore, MHC Class I Molecule A*0201 [2]: 0.075 | iScore, MHC Class I Molecule A*0301 [3]: 0 | iScore, MHC Class I Molecule A*0101 [4]: 0

Compound: SNASVSAPS [Peptide 83]
iScore, MHC Class I Molecule B*0702 [1]: 0 | iScore, MHC Class I Molecule A*0201 [2]: 0.154 | iScore, MHC Class I Molecule A*0301 [3]: 0 | iScore, MHC Class I Molecule A*0101 [4]: 0

Compound: VPTDLPAYV [Peptide 43]
iScore, MHC Class I Molecule B*0702 [1]: 0 | iScore, MHC Class I Molecule A*0201 [2]: 0.059 | iScore, MHC Class I Molecule A*0301 [3]: 0 | iScore (iTopia), A*0101 ([4]; integrates half-life and ED50): 0.098 | iScore, MHC Class I Molecule A*0101 [4]: 0.098

Compound: LDLSNNSLV [Peptide 120]
iScore, MHC Class I Molecule B*0702 [1]: 0 | iScore, MHC Class I Molecule A*0201 [2]: 0.158 | iScore, MHC Class I Molecule A*0301 [3]: 0 | iScore, MHC Class I Molecule A*0101 [4]: 0

Compound: APFLASAVS [Peptide 23]
iScore, MHC Class I Molecule B*0702 [1]: 0.176 | iScore, MHC Class I Molecule A*0201 [2]: 0.041 | iScore, MHC Class I Molecule A*0301 [3]: 0 | iScore, MHC Class I Molecule A*0101 [4]: 0

Now from value to compound:

iScore, MHC Class I Molecule B*0702 [1]: 0 | iScore, MHC Class I Molecule A*0201 [2]: 0.031 | iScore, MHC Class I Molecule A*0301 [3]: 0 | iScore, MHC Class I Molecule A*0101 [4]: 0
Compound: NRVLLELNS [Peptide 166]

iScore, MHC Class I Molecule B*0702 [1]: 0 | iScore, MHC Class I Molecule A*0201 [2]: 0.2 | iScore, MHC Class I Molecule A*0301 [3]: 0 | iScore, MHC Class I Molecule A*0101 [4]: 0
Compound: LQGLPHIRV [Peptide 141]

iScore, MHC Class I Molecule B*0702 [1]: 0.094 | iScore, MHC Class I Molecule A*0201 [2]: 0 | iScore, MHC Class I Molecule A*0301 [3]: 0 | iScore, MHC Class I Molecule A*0101 [4]: 0
Compound: ADPRLTNLS [Peptide 204]

iScore, MHC Class I Molecule B*0702 [1]: 0 | iScore, MHC Class I Molecule A*0201 [2]: 0.606 | iScore, MHC Class I Molecule A*0301 [3]: 0 | iScore, MHC Class I Molecule A*0101 [4]: 0
Compound: VFLGIVLAL [Peptide 179, VFLGIVLAL]

iScore, MHC Class I Molecule B*0702 [1]: 0 | iScore, MHC Class I Molecule A*0201 [2]: 0.045 | iScore, MHC Class I Molecule A*0301 [3]: 0 | iScore, MHC Class I Molecule A*0101 [4]: 0
Compound: KWMHNIRDA [Peptide 192]

iScore, MHC Class I Molecule B*0702 [1]: 0 | iScore, MHC Class I Molecule A*0201 [2]: 0.523 | iScore, MHC Class I Molecule A*0301 [3]: 0 | iScore, MHC Class I Molecule A*0101 [4]: 0
Compound: ILPPSLQTS [Peptide 174]

iScore, MHC Class I Molecule B*0702 [1]: 0 | iScore, MHC Class I Molecule A*0201 [2]: 0.08 | iScore, MHC Class I Molecule A*0301 [3]: 0 | iScore, MHC Class I Molecule A*0101 [4]: 0
Compound: RDACRDHME [Peptide 195]

iScore, MHC Class I Molecule B*0702 [1]: 0 | iScore, MHC Class I Molecule A*0201 [2]: 0.051 | iScore, MHC Class I Molecule A*0301 [3]: 0 | iScore, MHC Class I Molecule A*0101 [4]: 0
Compound: MVTWLKETE [Peptide 153]

iScore, MHC Class I Molecule B*0702 [1]: 0 | iScore, MHC Class I Molecule A*0201 [2]: 0.061 | iScore, MHC Class I Molecule A*0301 [3]: 0 | iScore, MHC Class I Molecule A*0101 [4]: 0
Compound: CSCC[C@H](NC(=O)[C@H](CC(=O)O)NC(=O)[C@H](C)NC(=O)[C@H](CCSC)NC(=O)[C@H](Cc1c[nH]cn1)NC(=O)[C@H](CS)NC(=O)[C@H](CC(=O)O)NC(=O)[C@H](CS)NC(=O)[C@@H](N)C(C)C)C(=O)O [Peptide 149] (H-VCDCHMADM-OH; N-terminus and C-terminus assumed)

iScore, MHC Class I Molecule B*0702 [1]: 0 | iScore, MHC Class I Molecule A*0201 [2]: 0.145 | iScore, MHC Class I Molecule A*0301 [3]: 0 | iScore, MHC Class I Molecule A*0101 [4]: 0
Compound: PPSLQTSYV [Peptide 175]

iScore, MHC Class I Molecule B*0702 [1]: 0 | iScore, MHC Class I Molecule A*0201 [2]: 0.138 | iScore, MHC Class I Molecule A*0301 [3]: 0 | iScore, MHC Class I Molecule A*0101 [4]: 0
Compound: NRKGIKKWM [Peptide 189]

iScore, MHC Class I Molecule B*0702 [1]: 0 | iScore, MHC Class I Molecule A*0201 [2]: 0.122 | iScore, MHC Class I Molecule A*0301 [3]: 0 | iScore, MHC Class I Molecule A*0101 [4]: 0
Compound: LEDNALKVL [Peptide 133]
